This note sets out measurements from patent publication US20170045520A1, “METHOD FOR PREDICTING RESPONSE TO THERAPY FOR CANCER” (National University of Singapore, priority 2014, published 2017).

In the series the test system is WBP2 overexpressing cancer cells. Nature of the series: Drug sensitivity of cells overexpressing WT ITCH versus C830A or E855K mutant ITCH to Wnt inhibitors. The class given is cell-based. On the procedure: This was indeed the case for up to 0.0001 μM and 5 μM for FH535 and C59, respectively, but above these doses, the distinction was lost probably as a result of non-specific cytotoxicity (FIGS. 8 and 9). This implies that ITCH inactivating mutations could be used to predict for response to Wnt inhibitors especially in cancers that are dependent on WBP2.

Where [1] appears, read: WT ITCH vs C830A or E855K mutant ITCH overexpression, FIGS. 8 and 9.

Molecules are shown by their SMILES. Like-named read-outs stand apart in the source and are kept apart here.

In the case of `Cc1cc(-c2ccc(CC(=O)Nc3ccc(-c4cccnc4)cc3)cc2)ccn1` [C59], the “dose up to which the difference in sensitivity between WT ITCH and mutant ITCH cells held (above it the distinction was lost, probably non-specific cytotoxicity)” value is no more than 5 µM. The “sensitivity of cells to the Wnt inhibitor when WT ITCH is overexpressed (low WBP2) compared to when C830A or E855K mutant is overexpressed (high WBP2)” value under setting [1] is “less sensitive”.
`Cc1cc([N+](=O)[O-])ccc1NS(=O)(=O)c1cc(Cl)ccc1Cl` [FH535]: under setting [1], the “dose up to which the difference in sensitivity between WT ITCH and mutant ITCH cells held (above it the distinction was lost, probably non-specific cytotoxicity)” value is “up to 0.0001 μM”; the “sensitivity of cells to the Wnt inhibitor when WT ITCH is overexpressed (low WBP2) compared to when C830A or E855K mutant is overexpressed (high WBP2)” value is “less sensitive”.
